This passage reports IC50 results from patent US10913742B2, “Oxadiazolones as transient receptor potential channel inhibitors” (Genentech, Inc., priority 2017, dated 2021).

The target of the test is human TRPA1 (Homo sapiens (Human), UniProt O75762). In words: hTRPA1 CHO Ca2+ FLIPR assay (block of cinnamaldehyde induced calcium influx). Format: cell-based. The following applies: CHO cells expressing TRPA1; 75 uM cinnamaldehyde; Hill coefficient fixed to 1.5; read-out: hTRPA1 (hTRPA1 CHO Ca2+ MAX EVO (IC50)). The method, then:
CHO cells expressing TRPA1 were plated into 384-well plates, incubated overnight at 37° C., and loaded with BD calcium indicator dye for 1 hr at 37° C. followed by 15 minutes at room temperature. The assay buffer was Hank's Balanced Salt Solution (HBSS) containing 20 mM HEPES (pH readjusted to 7.4) along with 0.02% BSA.
Following dye load and plate cool down, compounds were added to the cells using FLIPR Tetra. Plates were then incubated with compounds for 20 minutes at room temperature prior to adding agonist.
The IC50 results were fit with a standard Hill function, keeping the Hill coefficient (n) fixed to 1.5. Fixing the Hill coefficient will generally reduce variability of the IC50 determination. The IC50 results were individually examined to make sure the MIN and MAX points were set correctly prior to validation of the results.

human TRPA1, sequence (O75762 whole entry): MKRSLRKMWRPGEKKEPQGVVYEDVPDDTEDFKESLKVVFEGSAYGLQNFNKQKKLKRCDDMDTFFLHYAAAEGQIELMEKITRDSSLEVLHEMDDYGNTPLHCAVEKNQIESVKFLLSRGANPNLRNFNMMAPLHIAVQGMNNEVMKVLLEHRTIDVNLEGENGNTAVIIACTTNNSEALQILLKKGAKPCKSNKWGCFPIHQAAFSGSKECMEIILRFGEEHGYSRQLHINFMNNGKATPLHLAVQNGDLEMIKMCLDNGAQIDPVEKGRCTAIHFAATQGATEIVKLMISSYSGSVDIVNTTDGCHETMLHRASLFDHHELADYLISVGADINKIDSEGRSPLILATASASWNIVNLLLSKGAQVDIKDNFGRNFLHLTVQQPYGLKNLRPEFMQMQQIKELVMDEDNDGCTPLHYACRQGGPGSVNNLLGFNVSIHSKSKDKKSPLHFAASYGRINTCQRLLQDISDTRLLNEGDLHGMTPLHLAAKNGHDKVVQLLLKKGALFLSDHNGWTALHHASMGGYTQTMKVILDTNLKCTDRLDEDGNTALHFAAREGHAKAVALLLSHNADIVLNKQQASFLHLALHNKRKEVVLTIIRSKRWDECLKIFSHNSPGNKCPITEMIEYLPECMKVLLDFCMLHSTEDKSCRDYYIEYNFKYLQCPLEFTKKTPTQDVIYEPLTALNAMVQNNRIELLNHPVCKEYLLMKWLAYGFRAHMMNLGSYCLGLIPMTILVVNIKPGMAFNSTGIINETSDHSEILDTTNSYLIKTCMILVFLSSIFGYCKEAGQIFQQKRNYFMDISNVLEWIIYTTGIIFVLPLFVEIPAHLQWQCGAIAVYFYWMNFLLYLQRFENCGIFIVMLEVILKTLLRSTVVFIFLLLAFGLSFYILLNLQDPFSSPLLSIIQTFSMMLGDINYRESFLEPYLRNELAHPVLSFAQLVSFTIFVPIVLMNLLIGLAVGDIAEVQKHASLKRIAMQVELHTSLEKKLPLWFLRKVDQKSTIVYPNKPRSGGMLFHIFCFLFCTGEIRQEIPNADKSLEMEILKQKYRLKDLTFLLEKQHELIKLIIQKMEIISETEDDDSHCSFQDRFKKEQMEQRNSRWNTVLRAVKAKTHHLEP

Take `O=c1c2cccnc2cnn1Cc1nn([C@H]2C[C@H](c3ccc(Cl)cc3)C2)c(=O)o1` [compound 90, 3-[3-(4-chlorophenyl)cyclobutyl]-5-[(5-oxopyrido[2,3-d]pyridazin-6-yl)methyl]-1,3,4-oxadiazol-2-one]: the IC50 (commonly the concentration at which inhibition is half-maximal) came to 79.9 nM. In the case of `Cc1ccnc2ncn(Cc3nn(CC(F)c4ccc(Cl)cc4)c(=O)o3)c(=O)c12` (stereo in doubt) [compound 33, 5-[(5-methyl-4-oxo-pyrido[2,3-d]pyrimidin-3-yl)methyl]-3-[(2R)-2-(4-chlorophenyl)-2-fluoro-ethyl]-1,3,4-oxadiazol-2-one], the IC50 was found to be 180 nM. As for `Cc1ccc(CCn2nc(Cn3cnc4ncn(C)c4c3=O)oc2=O)cc1` [compound 31, 5-[(7-methyl-6-oxo-purin-1-yl)methyl]-3-[2-(p-tolyl)ethyl]-1,3,4-oxadiazol-2-one], the IC50 was determined as 126 nM. Turning to `O=c1c2cccnc2ncn1Cc1nn(C[C@H](F)c2ccc(Cl)cc2)c(=O)o1` (racemic) [compound 95, 5-[(4-oxopyrido[2,3-d]pyrimidin-3-yl)methyl]-3-[rac-(2R)-2-(4-chlorophenyl)-2-fluoro-ethyl]-1,3,4-oxadiazol-2-one], the IC50 is 48.5 nM. For `Cn1cnc2ncn(Cc3nn(C[C@@H](F)c4ccc5ccccc5c4)c(=O)o3)c(=O)c21` [compound 37, 5-[(7-methyl-6-oxo-purin-1-yl)methyl]-3-[(2S)-2-fluoro-2-(2-naphthyl)ethyl]-1,3,4-oxadiazol-2-one], the half-maximal inhibitory concentration (IC50) was 332 nM. The same measure for `Cn1cnc2ncn(Cc3nn(CCc4ccc(C5CC5)cc4)c(=O)o3)c(=O)c21` [compound 16, 3-(4-cyclopropylphenethyl)-5-((7-methyl-6-oxo-6H-purin-1(7H)-yl)methyl)-1,3,4-oxadiazol-2(3H)-one]: 356 nM; for `Cc1ccnc2ncn(Cc3nn([C@H]4C[C@H](c5ccc(F)cc5)C4)c(=O)o3)c(=O)c12` [compound 88, 3-[3-(4-fluorophenyl)cyclobutyl]-5-[(5-methyl-4-oxo-pyrido[2,3-d]pyrimidin-3-yl)methyl]-1,3,4-oxadiazol-2-one]: 5.76 nM. The value for `Cn1cnc2ncn(Cc3nn(C[C@H](F)c4cccc(Cl)c4)c(=O)o3)c(=O)c21` (racemic) [compound 84, 5-[(7-methyl-6-oxo-purin-1-yl)methyl]-3-[rac-(2R)-2-(3-chlorophenyl)-2-fluoro-ethyl]-1,3,4-oxadiazol-2-one] was 166 nM; that for `Cn1cnc2ncn(Cc3nn(CCc4ccc(Br)cc4)c(=O)o3)c(=O)c21` [compound 3, 3-(4-bromophenethyl)-5-((7-methyl-6-oxo-6H-purin-1(7H)-yl)methyl)-1,3,4-oxadiazol-2(3H)-one] was 44 nM; that for `Cc1ccnc2ncn(Cc3nn([C@H]4C[C@@](F)(c5ccc(C(F)(F)F)cc5)C4)c(=O)o3)c(=O)c12` [compound 99, 3-[3-fluoro-3-[4-(trifluoromethyl)phenyl]cyclobutyl]-5-[(5-methyl-4-oxo-pyrido[2,3-d]pyrimidin-3 yl)methyl]-1,3,4-oxadiazol-2-one] was 57.3 nM. The same measure for `Cn1cnc2ncn(Cc3nn([C@H]4C[C@H](c5ccc(OC(F)F)cc5)C4)c(=O)o3)c(=O)c21` [compound 103, 3-[3-[(trans)-4-(difluoromethoxy)phenyl]cyclobutyl]-5-[(7-methyl-6-oxo-purin-1-yl)methyl]-1,3,4-oxadiazol-2-one]: 26 nM; for `O=c1c2cccnc2ncn1Cc1nn(C[C@H](F)c2ccc(OC(F)F)cc2)c(=O)o1` (racemic) [compound 81, 5-[(4-oxopyrido[2,3-d]pyrimidin-3-yl)methyl]-3-[rac-(2R)-2-[4-(difluoromethoxy)phenyl]-2-fluoro-ethyl]-1,3,4-oxadiazol-2-one]: 50 nM; for `O=c1c2cccnc2ncn1Cc1nn([C@H]2C[C@](F)(c3ccc(Cl)cc3)C2)c(=O)o1` [compound 94, trans-3-[3-(4-chlorophenyl)-3-fluoro-cyclobutyl]-5-[(4-oxopyrido[2,3-d]pyrimidin-3-yl)methyl]-1,3,4-oxadiazol-2-one]: 16.8 nM.
